Data as given in the supplement of paper PMC10307832.

Experiments:
Test in all cases: relative viability (nuclei count vs DMSO), 5 days (fraction); higher = more cells survive
[1] = compound: C1COCCN1C2=NC(=NC3=C2OC4=C3C=CC=N4)C5=CC(=CC=C5)NC(=O)C6=CN=C(C=C6)N + C[C@]1(O)C[C@@H](c2nc(-c3ccc4ccc(-c5ccccc5)nc4c3)c3c(N)nccn32)C1 [Linsitinib] (partner 1 µM)
Summary of the method: (§1)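 Relative viability was taken as the ratio of nuclei in treated wells to nuclei in vehicle wells. Lung cancer cell lines in 1536-well plates received compounds by pin tool one day after seeding, either one drug alone or a fixed anchor-drug dose plus five library-drug doses (not always all listed) in √10 steps. Nuclei were counted on 4× images after 5 days of treatment, and values are medians of duplicate plates.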

[2] = compound: C1COCCN1C2=NC(=NC3=C2OC4=C3C=CC=N4)C5=CC(=CC=C5)NC(=O)C6=CN=C(C=C6)N + Cc1nc(NC(=O)N2CCC[C@H]2C(N)=O)sc1-c1ccnc(C(C)(C)C(F)(F)F)c1 [Alpelisib] (partner 2 µM)
Summary of the method: as §1

[3] = compound: C1COCCN1C2=NC(=NC3=C2OC4=C3C=CC=N4)C5=CC(=CC=C5)NC(=O)C6=CN=C(C=C6)N + O=C(c1cc(Cc2n[nH]c(=O)c3ccccc23)ccc1F)N1CCN(C(=O)C2CC2)CC1 [Olaparib] (partner 8 µM)
Summary of the method: as §1

[4] = compound: C1COCCN1C2=NC(=NC3=C2OC4=C3C=CC=N4)C5=CC(=CC=C5)NC(=O)C6=CN=C(C=C6)N + C[C@@H](Oc1cc(-c2cnn(C3CCNCC3)c2)cnc1N)c1c(Cl)ccc(F)c1Cl [Crizotinib] (partner 1 µM)
Summary of the method: as §1

Cell Line | relative viability ([1]; first compound 0.02 µM) | relative viability ([1]; first compound 0.06325 µM) | relative viability ([1]; first compound 0.2 µM) | relative viability ([1]; first compound 0.6325 µM) | relative viability ([1]; first compound 2 µM) | relative viability ([2]; first compound 0.02 µM) | relative viability ([2]; first compound 0.06325 µM) | relative viability ([2]; first compound 0.2 µM) | relative viability ([2]; first compound 0.6325 µM) | relative viability ([2]; first compound 2 µM) | relative viability ([3]; first compound 0.02 µM) | relative viability ([3]; first compound 0.06325 µM) | relative viability ([3]; first compound 0.2 µM) | relative viability ([3]; first compound 0.6325 µM) | relative viability ([3]; first compound 2 µM) | relative viability ([4]; first compound 0.02 µM) | relative viability ([4]; first compound 0.06325 µM) | relative viability ([4]; first compound 0.2 µM) | relative viability ([4]; first compound 0.6325 µM) | relative viability ([4]; first compound 2 µM)
NCI-H1975 | 0.882 | 0.983 | 0.897 | 0.905 | 0.476 | 0.677 | 0.705 | 0.548 | 0.567 | 0.352 | 0.772 | 0.865 | 1 | 0.86 | 0.381 | 0.993 | 1.15 | 0.929 | 1.07 | 0.418
NCI-H1993 | 0.768 | 0.627 | 0.689 | 0.74 | 0.667 | 0.651 | 0.624 | 0.691 | 0.697 | 0.595 | 0.949 | 1.07 | 1.06 | 0.958 | 0.201 | 0.821 | 0.856 | 0.805 | 0.899 | 0.789
NCI-H2009 | 1.29 | 1.2 | 1.17 | 1.17 | 0.871 | 1.26 | 1.24 | 1.16 | 1.11 | 0.838 | 0.695 | 0.674 | 0.689 | 0.725 | 0.687 | 0.984 | 1.11 | 0.927 | 1.07 | 0.72
NCI-H2023 | 0.639 | 0.755 | 0.602 | 0.543 | 0.333 | 0.68 | 0.621 | 0.544 | 0.438 | 0.359 | 0.587 | 0.519 | 0.379 | 0.463 | 0.316 | 0.669 | 0.711 | 0.49 | 0.56 | 0.257
NCI-H2085 | 0.839 | 1.02 | 0.885 | 0.82 | 0.456 | 0.956 | 0.988 | 0.926 | 0.909 | 0.596 | 0.735 | 0.793 | 0.747 | 0.68 | 0.547 | 0.971 | 0.947 | 0.817 | 0.887 | 0.522
NCI-H2087 | 0.988 | 0.883 | 0.985 | 0.969 | 0.573 | 1.05 | 1.12 | 1.05 | 1.12 | 0.619 | 0.582 | 0.62 | 0.546 | 0.636 | 0.32 | 0.979 | 0.936 | 0.925 | 0.892 | 0.531
NCI-H2126 | 0.73 | 0.79 | 0.68 | 0.581 | 0.601 | 0.778 | 0.726 | 0.732 | 0.753 | 0.627 | 0.889 | 0.962 | 0.876 | 0.865 | 0.532 | 1.04 | 1.09 | 1.06 | 1 | 0.645
NCI-H2228 | 0.588 | 0.481 | 0.737 | 0.728 | 0.524 | 0.737 | 0.707 | 0.66 | 0.493 | 0.317 | 0.822 | 0.69 | 0.481 | 0.564 | 0.33 | 0.489 | 0.536 | 0.364 | 0.397 | 0.291
